According to US20260217701A1, “SELECTIVE BET INHIBITORS AND USES THEREOF” (Tay Therapeutics Limited, priority 2022, published 2026):
“And” between values parts separate entries of the source, which are not always exact repeats. Identical values can stand only once.

Assay: Rat PK study #1 (Compound A PO, methylcellulose vs propylene glycol formulation)
Format: in vivo, Lewis rats
Procedure: For the first rat pharmacokinetic study, the pharmacokinetics of Compound A were assessed in male Lewis rats. Compound A was prepared in two different formulations (1% methylcellulose and 20% propylene glycol/20% Vitamin E/60% water) according to Table 3A (see Tables 2A and 2D for formulations). The formulations were made fresh prior to use. Animals were divided into two groups based on the compound formulation (n=3/group). The Compound A solutions were administered to animals orally (PO) and animals were then monitored over a 24 h period.
Blood samples (~0.2 mL) were collected according to a schedule (0.083, 0.25, 0.5, 1, 2, 4, 8, and 24 h following the initial dosing) via the jugular vein by cannulation and EDTA-K2 was used as anticoagulant. Within 30 minutes of collection, the samples were centrifuged at approximately 4000 times g-force for 5 minutes at 4° C. to obtain blood plasma. The plasma samples were immediately divided into two aliquots (~75 μL each), transferred to a cryogenic vial, and stored in a freezer at −75±15° C. prior to analysis.
The concentration of Compound A in plasma samples was determined by liquid chromatography-mass spectrometry (LC-MS/MS) using a Shimadzu HPLC (DGU-20A5R; LC-30AD; SIL-30AC; Rack changer II; CTO-31A; and CBM-20A) and an AB API 5500 LC/MS/MS instrument. Samples were analyzed on an Agilent Poroshell 120 EC-C18 4 μm (50×2.1 mm) column. Solution A in the mobile phase was 95% water (0.1% formic acid) and solution B was 95% acetonitrile in water (0.1% formic acid), injection volume was 3 μL, and flow rate was 0.6 mL/min.
To prepare samples for analysis, serial concentrations were prepared by diluting the stock solution of analyte with a 50% acetonitrile in water solution. 5 μL working solutions (5, 10, 20, 50, 100, 500, 1000, 5000, and 10000 ng/ml) were added to 50 μL of the blank Lewis rat plasma to achieve calibration standards of ~0.5 to 1000 ng/ml (0.5, 1, 2, 5, 10, 50, 100, 500, and 1000 ng/ml) in a total volume of 55 μL. Five quality control samples at 1 ng/ml, 2 ng/ml, 5 ng/mL, 50 ng/mL, and 800 ng/mL for plasma were prepared independently of those used for the calibration curves. These QC samples were prepared on the day of analysis in the same way as calibration standards.
55 μL of standards, 55 μL of QC samples and 55 μL of unknown samples (50 μL of unknown rat plasma with 5 μL of blank solution) were added to 200 μL of acetonitrile containing internal standard (IS; verapamil) mixture for precipitating protein respectively. The samples were then vortexed for 30 s. After centrifugation at 4° C., 3900 rpm for 15 min, the supernatant was diluted 3 times with water. 3 μL of diluted supernatant was injected into the LC/MS/MS system for quantitative analysis.

[1] = Lewis rats, PO 10 mg/kg, 1% methylcellulose formulation, individual animals, 10 mg/kg
[2] = Lewis rats, PO 10 mg/kg, 1% methylcellulose formulation, mean of 3 animals
[3] = Lewis rats, PO 10 mg/kg, propylene glycol/Vitamin E TPGS/water formulation, individual animals, 10 mg/kg
[4] = Lewis rats, PO 10 mg/kg, propylene glycol/Vitamin E TPGS/water formulation, mean of 3 animals

With Cn1cc(-c2ccccc2)c(-c2cn(C)c(=O)c3[nH]c(-c4cnn(C(F)(F)F)c4)cc23)cc1=O [Compound A, 6-methyl-4-(1-methyl-2-oxo-5-phenyl-1,2-dihydropyridin-4-yl)-2-(1-(trifluoromethyl)-1H-pyrazol-4-yl)-1,6-dihydro-7H-pyrrolo[2,3-c]pyridin-7-one] the “Plasma Concentration” value (Lewis rats, PO 10 mg/kg, 1% methylcellulose formulation, 0.083 h, individual animals) was 0.00 ng/mL, the “Plasma Concentration” value (Lewis rats, PO 10 mg/kg, 1% methylcellulose formulation, 0.083 h, mean of 3 animals) was “BLOQ” and the “Plasma Concentration” value (Lewis rats, PO 10 mg/kg, 1% methylcellulose formulation, 0.25 h, individual animals, 10 mg/kg) was 1.37 ng/mL and 0.868 ng/mL and 0.603 ng/mL. For the same compound, the “Plasma Concentration” value (Lewis rats, PO 10 mg/kg, 1% methylcellulose formulation, 0.5 h, individual animals, 10 mg/kg) was 9.07 ng/mL and 4.15 ng/mL and 2.89 ng/mL, the “Plasma Concentration” value (Lewis rats, PO 10 mg/kg, 1% methylcellulose formulation, 1 h, individual animals, 10 mg/kg) was 10.7 ng/mL and 12.2 ng/mL and the “Plasma Concentration” value (Lewis rats, PO 10 mg/kg, 1% methylcellulose formulation, 2 h, individual animals, 10 mg/kg) was 21.6 ng/mL and 22.7 ng/mL. For the same compound, the “Plasma Concentration” value (Lewis rats, PO 10 mg/kg, 1% methylcellulose formulation, 4 h, individual animals, 10 mg/kg) was 49.2 ng/mL and 43.1 ng/mL, the “Plasma Concentration” value (Lewis rats, PO 10 mg/kg, 1% methylcellulose formulation, 8 h, individual animals, 10 mg/kg) was 29.3 ng/mL and 67.3 ng/mL and 50.6 ng/mL and the “Plasma Concentration” value (Lewis rats, PO 10 mg/kg, 1% methylcellulose formulation, 24 h, individual animals, 10 mg/kg) was 0.996 ng/mL and 1.52 ng/mL and 5.80 ng/mL. The AUClast [1] was 875 ng·h/mL and 726 ng·h/mL, the AUClast/D [1] was 48.0 mg·h/mL and 87.5 mg·h/mL and 72.6 mg·h/mL and the Cmax [1] was 67.3 ng/mL and 50.6 ng/mL. The F [1] was 2.51% and 4.57% and 3.79%, the AUClast/D [2] was 69.4 mg·h/mL and the F [2] was 3.62%. For the same compound, the “Plasma Concentration” value (Lewis rats, PO 10 mg/kg, propylene glycol/Vitamin E TPGS/water formulation, 0.083 h, individual animals, 10 mg/kg) was 3.72 ng/mL and 4.36 ng/mL, the “Plasma Concentration” value (Lewis rats, PO 10 mg/kg, propylene glycol/Vitamin E TPGS/water formulation, 0.25 h, individual animals, 10 mg/kg) was 39.8 ng/mL and 47.2 ng/mL and the “Plasma Concentration” value (Lewis rats, PO 10 mg/kg, propylene glycol/Vitamin E TPGS/water formulation, 0.5 h, individual animals, 10 mg/kg) was 134 ng/mL. The “Plasma Concentration” value (Lewis rats, PO 10 mg/kg, propylene glycol/Vitamin E TPGS/water formulation, 1 h, individual animals, 10 mg/kg) was 264 ng/mL and 263 ng/mL, the “Plasma Concentration” value (Lewis rats, PO 10 mg/kg, propylene glycol/Vitamin E TPGS/water formulation, 2 h, individual animals, 10 mg/kg) was 375 ng/mL and 424 ng/mL and the “Plasma Concentration” value (Lewis rats, PO 10 mg/kg, propylene glycol/Vitamin E TPGS/water formulation, 4 h, individual animals, 10 mg/kg) was 316 ng/mL and 437 ng/mL. For the same compound, the “Plasma Concentration” value (Lewis rats, PO 10 mg/kg, propylene glycol/Vitamin E TPGS/water formulation, 8 h, individual animals, 10 mg/kg) was 156 ng/mL and 145 ng/mL, the “Plasma Concentration” value (Lewis rats, PO 10 mg/kg, propylene glycol/Vitamin E TPGS/water formulation, 24 h, individual animals, 10 mg/kg) was 12.6 ng/mL and 12.5 ng/mL and the AUC_%Extrap_obs (Lewis rats, PO 10 mg/kg, propylene glycol/Vitamin E TPGS/water formulation, individual animals) was 2.25%. For the same compound, the AUClast [3] was 3428 ng·h/mL and 3755 ng·h/mL, the Cmax [3] was 375 ng/mL and 437 ng/mL and the F [3] was 25.8% and 17.1% and 19.6%. The AUClast/D [4] was 404, the F [4] was 20.8% and the Clinical observations (both formulations, PO, 24 h) was “no recorded clinical observations”. The “plasma concentration, propylene glycol-based vs methylcellulose-based formulation” value (male Lewis rats, PO, same dose) was “approximately 10 fold”, the concentration at 0.083 h (male, Lewis, rat, plasma, po, 10 mg/kg, Lewis rats, PO 10 mg/kg, 1% methylcellulose formulation, 0.083 h, individual animals) was 0 ng/mL and the concentration at 0.25 h (male, Lewis, rat, plasma, po, 10 mg/kg, Lewis rats, PO 10 mg/kg, 1% methylcellulose formulation, 0.25 h, mean of 3 animals) was 0.95 ng/mL. It also gave a concentration at 0.5 h (male, Lewis, rat, plasma, po, 10 mg/kg, Lewis rats, PO 10 mg/kg, 1% methylcellulose formulation, 0.5 h, mean of 3 animals) of 5.37 ng/mL, a concentration at 1 h (male, Lewis, rat, plasma, po, 10 mg/kg, Lewis rats, PO 10 mg/kg, 1% methylcellulose formulation, 1 h, individual animals) of 17.1 ng/mL and a concentration at 1 h (male, Lewis, rat, plasma, po, 10 mg/kg, Lewis rats, PO 10 mg/kg, 1% methylcellulose formulation, 1 h, mean of 3 animals) of 13.3 ng/mL.
